Key:
[1] = biological target: T1, recombinant human 5-LOX (Homo sapiens, UniProt P09917); test: Fluorescence Intensity 5-LOX Enzyme Assay; assay type: biochemical; conditions: crude lysate of recombinant human 5-LOX; highest inhibitor concentration tested typically 25 μM
T1 sequence (P09917 1-674): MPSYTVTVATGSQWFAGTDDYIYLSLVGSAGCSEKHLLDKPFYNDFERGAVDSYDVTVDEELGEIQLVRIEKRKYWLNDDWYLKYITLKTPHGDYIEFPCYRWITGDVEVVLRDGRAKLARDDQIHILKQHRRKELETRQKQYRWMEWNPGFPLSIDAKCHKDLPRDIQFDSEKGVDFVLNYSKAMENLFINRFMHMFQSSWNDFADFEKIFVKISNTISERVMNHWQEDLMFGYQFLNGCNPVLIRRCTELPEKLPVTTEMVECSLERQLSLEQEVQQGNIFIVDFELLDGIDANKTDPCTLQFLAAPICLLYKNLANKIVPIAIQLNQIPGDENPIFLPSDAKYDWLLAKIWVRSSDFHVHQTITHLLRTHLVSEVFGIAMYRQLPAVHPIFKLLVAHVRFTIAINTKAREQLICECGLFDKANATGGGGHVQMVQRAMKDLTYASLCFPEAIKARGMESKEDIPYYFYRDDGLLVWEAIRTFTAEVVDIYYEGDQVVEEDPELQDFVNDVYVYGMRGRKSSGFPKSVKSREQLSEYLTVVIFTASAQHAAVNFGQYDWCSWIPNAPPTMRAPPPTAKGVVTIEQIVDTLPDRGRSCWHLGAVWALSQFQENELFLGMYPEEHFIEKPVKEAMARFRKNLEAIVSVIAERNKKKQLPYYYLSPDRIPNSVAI
Description: Bio Data Assays for Allergic and Non Allergic Airways Diseases Fluorescence Intensity 5-LOX Enzyme Assay
The enzyme assay is based on the oxidation of the non-fluorescent compound 2′7′-dichlorodihydrofluorescein diacetate (H2DCFDA) to the fluorescent 2′,7′-dichlorofluorescein by 5-LOX in an arachidonic acid-dependent reaction. Ester cleavage of the acetate groups of the substrate H2DCFDA must occur prior to oxidation. This is achieved through use of a crude cell lysate preparation of recombinant human 5-LOX. The enzyme assay ([…]) contained 50 mM Tris (pH 7.5), 2 mM CaCl2, 2 mM EDTA, 3 μM arachidonic acid (Nu-Chek Prep; #S-1133), 10 μM ATP, 10 μM H2DCFDA (Invitrogen; #D399), inhibitor (varying concentration) and recombinant human 5-LOX enzyme (1.25 μL crude lysate per well).
Inhibitors (dissolved in DMSO) were plated into a 384-well assay plate (Corning #3654) at 1 μL followed by a 20 μL addition of a solution containing 5-LO enzyme and H2DCFDA. Enzyme and H2DCFDA were pre-incubated for 5 min to allow time for acetate group cleavage of the dye prior to addition to the assay plate. After a 10 min pre-incubation of inhibitor and enzyme/dye mix, the assay was initiated by the addition of a substrate solution containing arachidonic acid and ATP. The enzymatic reaction was run for 20 min at room temperature and terminated by the addition of 40 μL of acetonitrile. Assay plates were read in a plate reader using standard wavelengths for fluorescein. IC50s of inhibitors were calculated using a 4-parameter fit using 7 inhibitor concentrations in duplicate with 3-fold serial dilutions. Controls on each plate included no inhibitor (zero percent effect) and 25 μM C J-13610 (one hundred percent effect). The highest inhibitor concentration tested was typically 25 μM. The final DMSO concentration in the assay was 2.5%.

[2] = system: human whole blood (leukotriene and prostaglandin levels); test: Eicosanoid production from human whole blood; assay type: cell-based; conditions: human whole blood stimulated with calcium ionophore A23187 and arachidonic acid; ELISA
Procedure: Human whole blood is collected in 10 ml heparin tubes (Vacutainer, Becton Dickenson). Collected blood is pooled and 80 μL is dispensed into each well of 384 well polypropylene plates. A PlateMate is used to add 2 μL of compound solution in DMSO to the 80 μL of blood in the polypropylene plates. The plate, with blood and compound added, is incubated at room temperature for 10 minutes. 2 μL of a calcimycin (800 ng/ml) (A23187 C-7522, Sigma) and arachidonic acid (30 μM) (NU-Chek PREP, INC. S-1133) solution in 60% ethanol is then added to the blood using a Micromultidrop. The plates are then incubated at 37° C. in a shallow water bath for 15 minutes. Plates are then spun at 800 g for 10 minutes at 4° C. Supernatant is removed and assayed by Elisa (Caymen Chemical).
Eicosanoid Production from Human Whole Blood:
Human whole blood was collected from healthy or asthmatic human donors in 10 ml heparinized tubes (Vacutainer tubes; Becton Dickenson, Franklin Lakes, N.J.). Collected blood was pooled and 80 μL was dispensed into each well of 384 well polypropylene plates using a Multi-prop™ 384-well dispenser (Titertek, Huntsville, Ala.). Varying concentrations of compounds were dissolved in DMSO then 2 μL/well was added to the blood using a PlateMate Plus™ automated pipetting station (Matrix Technologies, Hudson, N.H.). The compounds were preincubated with the blood at room temperature for 10 minutes followed by stimulation with 40 μM calcium ionophore (A23187, Sigma Chemical Co, St. Louis, Mo., Cat. # C-7522) and 30 μM arachidonic acid (S-1133, NU-Chek PREP, Inc., Elysian, MN, Cat. # S-1133) dissolved in 60% ethanol. After 15 min incubation at 37° C. in a shallow water bath, the blood was centrifuged at 8009 for 10 minutes at 4° C., the supernatants collected, and leukotriene and prostaglandin levels measured by ELISA according to the manufacturer's directions (Cayman Chemical Company, Ann Arbor, Mich.). The assay was performed at a final concentration of 2.5% DMSO.

[3] = system: eicosanoid production in the rat air pouch; test: Carrageenan-induced eicosanoid production in the rat air pouch; assay type: in vivo; conditions: po, male Lewis rats, 3 mpk by gavage 1 hour prior to carrageenan
Procedure: Carrageenan-Induced Eicosanoid Production in the Rat Air Pouch:
Male Lewis rats (175-200 g), Charles River Laboratories, Wilmington, Mass.) were used in the study. Air pouches were produced by subcutaneous injection of 20 ml of sterile air into the intrascapular area of the back. Pouches were allowed to develop for 1 day. Animals (6 per group) were fasted with free access to water for 16 to 24 hours prior to drug administration. Drugs or vehicle were administered by gavage 1 hour prior to injection of 2 ml of a 1% suspension of carrageenan (FMC BioPolymer, Philadelphia, Pa., Cat. # GP209-NF) dissolved in saline into the pouch. At 3 hours post-carrageenan injection, 1 ml of 50 μg/ml calcium ionophore in saline (A23187, Sigma Chemical Co, St. Louis, M, Cat. #C-7522) was injected into the pouch and the pouch fluid collected 10 minutes later by lavage. The fluid was centrifuged at 3500 rpm for 10 minutes at 4° C., and the supernatants were collected for analysis. Leukotriene and prostaglandin levels were quantitated by ELISA according to the manufacturer's directions (Cayman Chemical Company, Ann Arbor, Mi).

IC50 [1]	IC50 [2]	Compound	inhibition at 3 mg/kg [3]
331 nM	123 nM	C[C@H]1C[C@@](C#N)(c2cc(F)cc(Sc3ccc(-c4ccnn4C)cc3)c2)CCO1 [27(2), (2S,4R)-4-(3-fluoro-5-(4-(1-methyl-1H-pyrazol-5-yl)phenylthio)phenyl)-2-methyl-tetrahydro-2H-pyran-4-carbonitrile]	100%
≥ 25000 nM	–	Cn1nccc1-c1ccc([S+]([O-])c2cccc(C3(C(N)=O)CCOCC3)c2)cc1 (stereo not shown) [Example 50, 4-(3-{[4-(1-methyl-1H-pyrazol-5-yl)phenyl]sulfinyl}phenyl)tetrahydro-2H-pyran-4-carboxamide]	12%
256 nM	1260 nM	Cn1nccc1C(=O)c1cc(F)c(Sc2cccc(C3(C(N)=O)CCOCC3)c2)cc1F [Example 63, 4-[3-({2,5-difluoro-4-[(1-methyl-1H-pyrazol-5-yl)carbonyl]phenyl}thio)phenyl]tetrahydro-2H-pyran-4-carboxamide]	–
470 nM	8270 nM	CNC(=O)C1(c2cccc(Sc3ccc(C(=O)c4ccnn4C)c(OC)c3)c2)CCOCC1 [Example 64, 4-[3-({3-methoxy-4-[(1-methyl-1H-pyrazol-5-yl)carbonyl]phenyl}thio)phenyl]-N-methyltetrahydro-2H-pyran-4-carboxamide]	–
81.3 nM	1060 nM	CNC(=O)C1(c2cccc(Sc3ccc(C(=O)c4ccnn4C)c(Cl)c3)c2)CCOCC1 [Example 65, 4-[3-({3-chloro-4-[(1-methyl-1H-pyrazol-5-yl)carbonyl]phenyl}thio)phenyl]-N-methyltetrahydro-2H-pyran-4-carboxamide]	–
209 nM	1210 nM	Cn1nccc1C(=O)c1ccc(Sc2cccc(C3(C(N)=O)CCOCC3)c2)c(F)c1 [Example 67, 4-[3-({2-fluoro-4-[(1-methyl-1H-pyrazol-5-yl)carbonyl]phenyl}thio)phenyl]tetrahydro-2H-pyran-4-carboxamide]	–
803 nM	2480 nM	Cn1nccc1C(=O)c1ccc(Sc2cccc(C3(C(N)=O)CCOCC3)c2)c(Cl)c1 [Example 68, 4-[3-({2-chloro-4-[(1-methyl-1H-pyrazol-5-yl)carbonyl]phenyl}thio)phenyl]tetrahydro-2H-pyran-4-carboxamide]	–
1590 nM	3350 nM	Cn1nccc1C(=O)c1ccc(Sc2cccc(C3(C(N)=O)CCOCC3)c2)cn1 [Example 69, 4-[3-({6-[(1-methyl-1H-pyrazol-5-yl)carbonyl]pyridin-3-yl}thio)phenyl]tetrahydro-2H-pyran-4-carboxamide]	–
740 nM	3130 nM	COc1cc(C(=O)c2ccnn2C)ccc1Sc1cccc(C2(C(N)=O)CCOCC2)c1 [Example 70, 4-[3-({2-methoxy-4-[(1-methyl-1H-pyrazol-5-yl)carbonyl]phenyl}thio)phenyl]tetrahydro-2H-pyran-4-carboxamide]	–
430 nM	1980 nM	COc1cc(Sc2cccc(C3(C(N)=O)CCOCC3)c2)ccc1C(=O)c1ccnn1C [Example 71, 4-[3-({3-methoxy-4-[(1-methyl-1H-pyrazol-5-yl)carbonyl]phenyl}thio)phenyl]tetrahydro-2H-pyran-4-carboxamide]	–
109 nM	6360 nM	CNC(=O)C1(c2cccc(Sc3ccc(C(=O)c4ccnn4C)cc3)c2)CCOCC1 [Example 72, N-methyl-4-[3-({4-[(1-methyl-1H-pyrazol-5-yl)carbonyl]phenyl}thio)phenyl]tetrahydro-2H-pyran-4-carboxamide]	–
13.4 nM	672 nM	C[C@H]1C[C@@](C(N)=O)(c2cccc(Sc3ccc(-c4c(Br)cnn4C)cc3)c2F)CCO1 [Example 73, (2S,4R)-4-(3-{[4-(4-bromo-1-methyl-1H-pyrazol-5-yl)phenyl]thio}-2-fluorophenyl)-2-methyltetrahydro-2H-pyran-4-carboxamide]	–
108 nM	727 nM	Cn1ncc(Br)c1-c1ccc(Sc2cccc(C3(C(N)=O)CCOCC3)c2)cc1 [Example 76, 4-(3-{[4-(4-bromo-1-methyl-1H-pyrazol-5-yl)phenyl]thio}phenyl)tetrahydro-2H-pyran-4-carboxamide]	–
153 nM	1380 nM	Cn1ncc(Br)c1-c1ccc(Sc2cccc(C3(C(N)=O)CCOCC3)c2)cc1F [Example 78, 4-(3-{[4-(4-bromo-1-methyl-1H-pyrazol-5-yl)-3-fluorophenyl]thio}phenyl)tetrahydro-2H-pyran-4-carboxamide]	–
1200 nM	530 nM	C[C@@H]1C[C@](C#N)(c2cccc(Sc3ccc(-c4ccnn4C)cc3)c2)CCO1 [Example 82, (2R,4S)-2-methyl-4-(3-{[4-(1-methyl-1H-pyrazol-5-yl)phenyl]thio}phenyl)tetrahydro-2H-pyran-4-carbonitrile]	–
324 nM	565 nM	CCNC(=O)C1(c2cccc(Sc3ccc(-c4ccnn4C)cc3)c2)CCOCC1 [Example 86, N-ethyl-4-(3-{[4-(1-methyl-1H-pyrazol-5-yl)phenyl]thio}phenyl)tetrahydro-2H-pyran-4-carboxamide]	–
1100 nM	1010 nM	Cn1nccc1-c1ccc(Sc2cccc(C3(C(N)=O)CCOCC3)c2Cl)cc1 [Example 87, 4-(2-chloro-3-{[4-(1-methyl-1H-pyrazol-5-yl)phenyl]thio}phenyl)tetrahydro-2H-pyran-4-carboxamide]	–
3220 nM	1170 nM	Cn1nccc1-c1ccc(Sc2cccc(C3(C(N)=O)CCOCC3)c2)c(C#N)c1 [Example 88, 4-(3-{[2-cyano-4-(1-methyl-1H-pyrazol-5-yl)phenyl]thio}phenyl)tetrahydro-2H-pyran-4-carboxamide]	–

— patent US8097733B2, “Pyrazole derivatives as 5-LO-inhibitors” (Pfizer Inc., priority 2007, dated 2012)
